Measurements as given in patent publication US20160166565A1, “TREATMENT OF MULTIPLE SCLEROSIS WITH COMBINATION OF LAQUINIMOD AND FLUPIRTINE” (Teva Pharmaceutical Industries, Ltd., priority 2013, published 2016).
Where two headings read alike, the source gives them in different places.

Tested on: MOG-induced EAE Mice
Assay: MOG-induced EAE in mice, laquinimod alone or in combination with flupirtine
Type: in vivo, mice (C57BL/6)
Conditions: oral gavage qd, Day 1 to 30; for inhibition at 30 mg/kg: Mus musculus, vs vehicle
[1] = 0.5% MC + Flupirtin 30 mg/kg/day

For CCOC(=O)Nc1ccc(NCc2ccc(F)cc2)nc1N [Flupirtin, ethyl {2-amino-6-[(4-fluorobenzyl)amino]pyridin-3-yl}carbamate], the “Duration” value [1] was 17.0 days, the “GMS value (group mean score)” value [1] was 1.9 and the “INC (Incidence)” value [1] was 15/15. The “MMS value (mean maximal score)” value [1] was 3.1, the “MORT (Mortality)” value [1] was 0/15 and the “Onset” value [1] was 13.3 days. It also gave an inhibition at 30 mg/kg (0.5% MC + Flupirtin 30 mg/kg/day, read-out: INH 1 (percent inhibition according to incidence)) of 0%, an inhibition at 30 mg/kg (0.5% MC + Flupirtin 30 mg/kg/day, read-out: INH 2 (percent inhibition according to MMS)) of 11.4% and an inhibition at 30 mg/kg (0.5% MC + Flupirtin 30 mg/kg/day, read-out: INH 3 (percent inhibition / activity according to GMS)) of 17.4%.
For CCN(C(=O)c1c(O)c2c(Cl)cccc2n(C)c1=O)c1ccccc1 [LAQ, 5-chloro-N-ethyl-4-hydroxy-1-methyl-2-oxo-N-phenyl-1,2-dihydroquinoline-3-carboxamide], the “Duration” value (LAQ 1 mg/kg/day + 0.5% MC) was 16.0 days, the “GMS value (group mean score)” value (LAQ 1 mg/kg/day + 0.5% MC) was 1.9 and the “INC (Incidence)” value (LAQ 1 mg/kg/day + 0.5% MC) was 15/15. For the same molecule, the “MMS value (mean maximal score)” value (LAQ 1 mg/kg/day + 0.5% MC) was 3.4, the “MORT (Mortality)” value (LAQ 1 mg/kg/day + 0.5% MC) was 0/15 and the “Onset” value (LAQ 1 mg/kg/day + 0.5% MC) was 14.8 days. For the same molecule, the “Duration” value (LAQ 5 mg/kg/day + 0.5% MC) was 14.7 days, the “GMS value (group mean score)” value (LAQ 5 mg/kg/day + 0.5% MC) was 1.6 and the “INC (Incidence)” value (LAQ 5 mg/kg/day + 0.5% MC) was 14/15. The “MMS value (mean maximal score)” value (LAQ 5 mg/kg/day + 0.5% MC) was 2.9, the “MORT (Mortality)” value (LAQ 5 mg/kg/day + 0.5% MC) was 0/15 and the “Onset” value (LAQ 5 mg/kg/day + 0.5% MC) was 15.0 days.
